ChEMBL document CHEMBL1201862, “PubChem BioAssay data set” (2004)
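Five compound concentrations were applied to cells in 96-well plates for 48 hours; endpoints were derived by simple linear interpolation of the resulting dose-response curve. GI50 = concentration required for 50% inhibition of growth.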 Active and inactive are the calls of the source. Rule as the data show it: active = GI50 up to about 1.1 µM and inactive = higher.

What was measured:
Experiment in all cases: NCI anticancer screen, dose series, 48 h
[1] = test system: M14
[2] = test system: UACC-257
[3] = test system: OVCAR-4
[4] = test system: IGROV-1
[5] = test system: HL-60
[6] = test system: RXF 393
[7] = test system: Malme-3M
[8] = test system: HOP-62
[9] = test system: NCI-H460
[10] = test system: EKVX
[11] = test system: COLO 205
[12] = test system: OVCAR-3
[13] = test system: SF-295
[14] = test system: UACC-62
[15] = test system: SW-620
[16] = test system: SK-MEL-28
[17] = test system: LOX IMVI

Measured: GI50

CCC/C=C\C=C\C1(NS(=O)(=O)c2ccc(C)cc2)CCC(C(C)(C)C)CC1 (centres undefined)
inactive: [1] 13.3 µM | [2] 16.8 µM | [3] 17.1 µM | [4] 27 µM | [5] 6.93 µM | [6] 13.7 µM | [7] 14.9 µM | [8] 20.7 µM | [9] 14.6 µM | [10] 14.2 µM | [11] 14.5 µM | [12] 7.01 µM | [13] 19.9 µM | [14] 21.3 µM | [15] 17.9 µM

COc1cc2c(cc1OC)C(C(=O)O)C(c1ccccc1)N(C)C2=O (centres undefined)
inactive: [1] > 100 µM | [2] > 100 µM | [3] > 100 µM | [4] > 100 µM | [16] > 100 µM | [7] > 100 µM | [8] > 100 µM | [9] > 100 µM | [10] > 100 µM | [11] > 100 µM | [12] > 100 µM | [13] > 100 µM | [14] > 100 µM | [15] > 100 µM

Cc1cccc(NC(=O)CC#N)c1Cl
inactive: [1] > 100 µM | [2] > 100 µM | [4] > 100 µM | [5] > 100 µM | [16] > 100 µM | [17] > 100 µM | [7] > 100 µM | [10] > 100 µM | [12] > 100 µM | [13] > 100 µM | [14] > 100 µM | [15] > 100 µM

O=C1C=CC(=O)C2C1Cc1ccccc1C2c1ccccc1 (centres undefined)
inactive: [1] 42.8 µM | [2] 28.1 µM | [3] 20.5 µM | [4] 67 µM | [5] 23 µM | [16] 97.1 µM | [17] 41.6 µM | [7] 59.4 µM | [8] > 100 µM | [9] 29.9 µM | [10] 31.1 µM | [11] 19.5 µM | [12] 29.6 µM | [13] > 100 µM | [14] > 100 µM | [15] 27.7 µM

COc1cc([C@@H]2OC(=O)C3C2C(=O)O[C@H]3c2cc(OC)c(OC)c(OC)c2)cc(OC)c1OC (some centres undefined)
inactive: [1] > 100 µM | [2] > 100 µM | [3] > 100 µM | [4] > 100 µM | [5] > 100 µM | [16] > 100 µM | [6] > 100 µM | [17] > 100 µM | [8] > 100 µM | [9] > 100 µM | [10] > 100 µM | [11] > 100 µM | [12] > 100 µM | [13] > 100 µM | [14] > 100 µM | [15] > 100 µM

O=C1Cc2ccccc2CCc2ccsc21
inactive: [1] > 100 µM | [2] > 100 µM | [3] > 100 µM | [4] > 100 µM | [5] 92.3 µM | [16] > 100 µM | [6] > 100 µM | [17] > 100 µM | [7] > 100 µM | [9] > 100 µM | [10] > 100 µM | [11] > 100 µM | [12] > 100 µM | [13] > 100 µM | [15] > 100 µM

O=C(Nc1ccc(Nc2ccc(NC(=O)c3ccccc3)c3c2C(=O)c2ccccc2C3=O)c2c1C(=O)c1ccccc1C2=O)c1ccccc1
inactive: [1] > 100 µM | [2] > 100 µM | [3] > 100 µM | [4] > 100 µM | [5] > 100 µM | [16] > 100 µM | [6] > 100 µM | [7] > 100 µM | [8] > 100 µM | [9] > 100 µM | [10] > 100 µM | [11] > 100 µM | [12] > 100 µM | [14] > 100 µM | [15] > 100 µM

Cc1ccc(S(=O)(=O)CC(=O)CC(=O)C(=O)Nc2cccc(C(F)(F)F)c2)cc1
inactive: [1] > 100 µM | [2] > 100 µM | [4] > 100 µM | [5] 97.1 µM | [16] > 100 µM | [17] > 100 µM | [7] 81.3 µM | [10] > 100 µM | [12] > 100 µM | [13] > 100 µM | [14] > 100 µM | [15] > 100 µM

Cc1cc(C)nc(NS(=O)(=O)c2ccc(NC(=O)c3cccc4c(N)c5ccccc5nc34)cc2)n1
inactive: [1] > 100 µM | [2] > 100 µM | [3] > 100 µM | [4] > 100 µM | [16] > 100 µM | [6] > 100 µM | [17] 53.6 µM | [7] > 100 µM | [8] > 100 µM | [9] > 100 µM | [10] > 100 µM | [11] > 100 µM | [12] > 100 µM | [13] > 100 µM | [14] > 100 µM | [15] > 100 µM

N#CCCC[Si]12OCCN(CCO1)CCO2
inactive: [2] > 100 µM | [4] > 100 µM | [5] > 100 µM | [16] > 100 µM | [6] > 100 µM | [7] > 100 µM | [9] > 100 µM | [10] > 100 µM | [11] > 100 µM | [12] > 100 µM | [13] > 100 µM | [14] > 100 µM | [15] > 100 µM
